This note sets out measurements from US8735414B2 (priority 2009, dated 2014).

A word on the IC50: it is the concentration at which inhibition is half-maximal. For orientation: melting point means the temperature, or range, at which the solid turns liquid.

Data set [1] concerns bicistronic HCV replicon (replicon RNA, GenBank Accession No. AJ242654). In words: HCV Replicon Assay. In kind it is cell-based. The following applies: Hepatitis C virus, 72 h, read-out: Replicon IC50. For orientation: A replicon is a self-replicating genome or part of one, used to study replication in cells.

In the case of `Cc1ccc2c(C#N)c(-c3ncc(S(=O)(=O)N[C@@H](C)C(F)(F)F)cn3)n(-c3ccccn3)c2c1` [compound 475, 2-[3-cyano-6-methyl-1-(pyridin-2-yl)-1H-indol-2-yl]-N-[(2S)-1,1,1-trifluoropropan-2-yl]pyrimidine-5-sulfonamide], the melting point fell in the range of 210 to 212 °C. Besides, the IC50 in data set [1] was < 500 nM.

`CCc1cc2c(cc1F)c(C(N)=O)c(-c1cnc(NS(=O)(=O)C(C)(C)C)nc1)n2C1CCCCC1` [compound 1036, 2-{2-[(tert-butylsulfonyl)amino]pyrimidin-5-yl}-1-cyclohexyl-6-ethyl-5-fluoro-1H-indole-3-carboxamide]: the melting point is > 300 °C. Besides, the IC50 in data set [1] was in the range of 2000 to 5000 nM.

`COc1ccc2c(C#N)c(-c3ncc(S(=O)(=O)NC(CF)CF)cn3)n(C3CCCC3)c2c1` [compound 231, 2-(3-cyano-1-cyclopentyl-6-methoxy-1H-indol-2-yl)-N-(1,3-difluoropropan-2-yl)pyrimidine-5-sulfonamide] yielded a melting point of 232 to 234 °C. Further, the IC50 in data set [1] was < 500 nM.

The compound `Cc1cc2c(cc1F)c(C(N)=O)c(-c1ccc(S(=O)(=O)N[C@@H](C)C(F)(F)F)cn1)n2-c1cccnc1` [compound 913, 5-fluoro-6-methyl-1-(pyridin-3-yl)-2-(5-{[(2S)-1,1,1-trifluoropropan-2-yl]sulfamoyl}pyridin-2-yl)-1H-indole-3-carboxamide] registered a melting point of 223 to 227 °C. The IC50 in data set [1] is < 500 nM.

Regarding `CCc1cc2c(cc1F)c(C(=O)O)c(-c1ncc(NS(=O)(=O)C(C)(C)C)cn1)n2C1CCCCC1` [compound 1028, 2-{5-[(tert-butylsulfonyl)amino]pyrimidin-2-yl}-1-cyclohexyl-6-ethyl-5-fluoro-1H-indole-3-carboxylic acid], the melting point lay in the range of 236 to 237 °C. Moreover, in data set [1], the IC50 lay within 2000 to 5000 nM.

Consider `Cc1cc2c(cc1O)c(C(N)=O)c(-c1ccc(S(=O)(=O)N[C@@H](C)C(F)(F)F)cn1)n2C1CCCC1` [compound 841, 1-cyclopentyl-5-hydroxy-6-methyl-2-(5-{[(2S)-1,1,1-trifluoropropan-2-yl]sulfamoyl}pyridin-2-yl)-1H-indole-3-carboxamide], for which the melting point lay within 272 to 274 °C. Further, the IC50 in data set [1] is < 500 nM.

For the compound `C[C@H](NS(=O)(=O)c1ccc(-c2c(C#N)c3cc(F)ccc3n2-c2ccccn2)nc1)C(F)(F)F` [compound 386, 6-[3-cyano-5-fluoro-1-(pyridin-2-yl)-1H-indol-2-yl]-N-[(2S)-1,1,1-trifluoropropan-2-yl]pyridine-3-sulfonamide], the melting point was 210 to 212 °C. Also, the IC50 in data set [1] was < 500 nM.

The compound `CCn1c(-c2ccc(N(CC#N)S(=O)(=O)C3CC3)nc2)c(C#N)c2ccc(OC(C)C)cc21` [compound 294, N-{5-[3-cyano-1-ethyl-6-(propan-2-yloxy)-1H-indol-2-yl]pyridin-2-yl}-N-(cyanomethyl)cyclopropanesulfonamide] displayed a melting point of 236 to 238 °C. In data set [1], the IC50 was in the range of 500 to 2000 nM.

With `CCc1cc2c(cc1F)c(C#N)c(-c1ccc(S(=O)(=O)N[C@@H](C)C(F)(F)F)cn1)n2-c1ccc(F)cn1` [compound 777, 6-[3-cyano-6-ethyl-5-fluoro-1-(5-fluoropyridin-2-yl)-1H-indol-2-yl]-N-[(2S)-1,1,1-trifluoropropan-2-yl]pyridine-3-sulfonamide], the melting point fell in the range of 210 to 212 °C. In addition, the half-inhibitory concentration (IC50) in data set [1] is < 500 nM.

For the compound `C[C@@H](NS(=O)(=O)c1ccc(-c2c(C#N)c3cc(F)ccc3n2C2CCC2)nc1)C(F)(F)F` [compound 219, 6-(3-cyano-1-cyclobutyl-5-fluoro-1H-indol-2-yl)-N-[(2R)-1,1,1-trifluoropropan-2-yl]pyridine-3-sulfonamide], the melting point is 109 to 110 °C. Further, the IC50 in data set [1] was < 500 nM.

Compound `C[C@H](NS(=O)(=O)c1ccc(-c2c(C#N)c3cc(Cl)ccc3n2-c2ccccc2)nc1)C(F)(F)F` [compound 441, 6-(5-chloro-3-cyano-1-phenyl-1H-indol-2-yl)-N-[(2S)-1,1,1-trifluoropropan-2-yl]pyridine-3-sulfonamide] displayed a melting point of 210 to 212 °C. In data set [1], the IC50 is < 500 nM.

`CCc1ccc2c(c1)c(C#N)c(-c1ccc(S(=O)(=O)NC(CF)CF)cn1)n2C1CCCC1` [compound 381, 6-(3-cyano-1-cyclopentyl-5-ethyl-1H-indol-2-yl)-N-(1,3-difluoropropan-2-yl)pyridine-3-sulfonamide] gave a melting point of 167 to 168 °C. For the same compound, in data set [1], the IC50 was < 500 nM.

The compound `C[C@@H](NS(=O)(=O)c1ccc(-c2c(C#N)c3cc(F)ccc3n2-c2ncccn2)nc1)C(F)(F)F` [compound 673, 6-[3-cyano-5-fluoro-1-(pyrimidin-2-yl)-1H-indol-2-yl]-N-[(2R)-1,1,1-trifluoropropan-2-yl]pyridine-3-sulfonamide] showed a melting point of 202 to 205 °C. Further, the IC50 in data set [1] is < 500 nM.

Turning to `CNC(=O)c1c(-c2ncc(S(=O)(=O)NC(C)(C)C)cn2)n(C2CCC2)c2cc(C)c(F)cc12` [compound 802, 2-[5-(tert-butylsulfamoyl)pyrimidin-2-yl]-1-cyclobutyl-5-fluoro-N,6-dimethyl-1H-indole-3-carboxamide], the melting point fell in the range of 211 to 213 °C. Moreover, the IC50 in data set [1] was < 500 nM.

The compound `C[C@H](NS(=O)(=O)c1ccc(-c2c(C#N)c3ccc(Cl)cc3n2C2CCC2)nc1)C(F)(F)F` [compound 375, 6-(6-chloro-3-cyano-1-cyclobutyl-1H-indol-2-yl)-N-[(2S)-1,1,1-trifluoropropan-2-yl]pyridine-3-sulfonamide] had a melting point of 198 to 204 °C. The IC50 in data set [1] is < 500 nM.

Take `CC(C)NS(=O)(=O)c1cnc(-c2c(C(N)=O)c3ccc(Cl)cc3n2C2CCC2)nc1` [compound 780, 6-chloro-1-cyclobutyl-2-[5-(propan-2-ylsulfamoyl)pyrimidin-2-yl]-1H-indole-3-carboxamide]: the melting point was 251 to 253 °C. In addition, the IC50 in data set [1] was < 500 nM.

The compound `C[C@H](NS(=O)(=O)c1ccc(-c2c(C#N)c3ccc(F)cc3n2C2CCCCC2)nc1)C1CC1` [compound 262, 6-(3-cyano-1-cyclohexyl-6-fluoro-1H-indol-2-yl)-N-[(1S)-1-cyclopropylethyl]pyridine-3-sulfonamide] registered a melting point of 161 to 162 °C. The IC50 in data set [1] was < 500 nM.

On to `N#Cc1c(-c2ncc(S(=O)(=O)NC(CF)CF)cn2)n(C2CCCCC2)c2cc(C3CC3)ccc12` [compound 193, 2-(3-cyano-1-cyclohexyl-6-cyclopropyl-1H-indol-2-yl)-N-(1,3-difluoropropan-2-yl)pyrimidine-5-sulfonamide], for which the melting point was > 200 °C (dec.). In data set [1], the IC50 was < 500 nM.

The compound `Cc1cc2c(C#N)c(-c3ccc(S(=O)(=O)N[C@@H](C)C(F)(F)F)cn3)n(-c3ncc(F)cn3)c2cc1F` [compound 949, 6-[3-cyano-6-fluoro-1-(5-fluoropyrimidin-2-yl)-5-methyl-1H-indol-2-yl]-N-[(2S)-1,1,1-trifluoropropan-2-yl]pyridine-3-sulfonamide] registered a melting point of 226 to 231 °C. In addition, the IC50 in data set [1] was < 500 nM.
